pIC50: −log10 of the molar value. Structures can show the parent of a compound that is named as a salt. Where two headings read alike, the source gives them in different places.
Assays:
human recombinant DPP-IV = target: T1, human recombinant DPP-IV (Homo sapiens, UniProt P27487); test: Inhibition of human recombinant DPP-IV (Gly-Pro-AMC fluorometric assay); format: biochemical
T1 construct: purchased R&D Systems, USA
Experimental: Inhibition of Human Recombinant DPP-IV
The proteolytic activity of human recombinant DPP-IV was determined by following the hydrolysis of Gly-Pro-7-amino-4-methylcoumarin (Gly-Pro-AMC) and the fluorometric quantitation of the liberated AMC. Assays were routinely carried out in 96-well flat-bottom black microwell plates. The reaction mixture (100 μl) contained 10 ng of human recombinant DPP-IV enzyme (produced in-house or procured from R&D Systems, USA) in the assay buffer (25 mM Tris-HCl, pH 7.4, 140 mM NaCl, 10 mM KCl and 0.1 mg/ml BSA) and 50 μM Gly-Pro-AMC. After incubation of assay plates at 30° C. for 30 min, the hydrolysis of Gly-Pro-AMC was monitored in a fluorescence microplate reader (Molecular Devices SpectraMax M5), with excitation and emission wavelengths set at 360 nm and 460 nm, respectively.
The inhibition of DPP-IV activity by test compounds was routinely performed by preincubating the enzyme with test compound (10 and 100 nM for primary screening and 8 concentrations from 0.1 to 1000 nM for the dose-response study) or vehicle (0.01% DMSO) for 15 min at 30° C., in a total volume of 90 μl. Test compounds were dissolved in DMSO at a concentration of 10 mM and serially diluted further in assay buffer. The enzyme reaction was initiated by the addition of Gly-Pro-AMC, followed by incubation of assay plates for 30 min at 30° C. and the liberated AMC was measured as described above. A known inhibitor of DPP-IV (positive control) was always included in the assay. Test compounds at various concentrations were always evaluated in duplicate, along with substrate blanks, vehicle controls and positive controls.
The results are expressed as percent inhibition of the enzyme activity relative to vehicle controls. Dose-response studies were conducted for those compounds exerting ≧50% inhibition of activity at 10 nM in primary screening. IC50, defined as the inhibitor concentration which caused a 50% decrease of the activity under assay conditions, was computed using GraphPad Prism software, version 5.0. […]

plasma DPP-IV = target: T2, plasma DPP-IV (Canis lupus familiaris, UniProt A0A8I3Q2I8); test: Measurement of plasma DPP-IV activity in Beagle dogs; format: in vivo; details: dog, male Beagle dogs, single oral dose 3 mg/kg p.o.
T2 construct: from tissue; host or cells: EDTA-plasma of male Beagle dogs after oral dosing (ex vivo)
Experimental: A. Measurement of Plasma DPP-IV Activity in Beagle Dogs
Overnight-fasted male animals were administered either vehicle or single oral dose of compound. Blood samples were collected prior to dosing and for 12 hours post dose into tubes containing EDTA. EDTA-plasma was separated and DPP-IV activity was measured using a fluorometric assay. Assays were carried out in 96-well flat-bottom black microwell plates. A typical reaction contained 25 μl plasma, 50 μl of 50 μM substrate (Gly-Pro-AMC) and 25 μl assay buffer (25 mM Tris-HCl, pH 7.4, 140 mM NaCl, 10 mM KCl and 1% BSA) in a total reaction volume of 100 μl. Plasma samples were incubated with the substrate for 30 min at 30° C., following which the fluorescence was measured in a microplate fluorescence reader (POLARstar Galaxy), with excitation and emission wavelengths set at 360 nm and 460 nm, respectively. Percent inhibition in plasma DPP-IV activity due to compounds was calculated by comparing with plasma from vehicle-treated animals.

T2 sequence (A0A8I3Q2I8 1-765): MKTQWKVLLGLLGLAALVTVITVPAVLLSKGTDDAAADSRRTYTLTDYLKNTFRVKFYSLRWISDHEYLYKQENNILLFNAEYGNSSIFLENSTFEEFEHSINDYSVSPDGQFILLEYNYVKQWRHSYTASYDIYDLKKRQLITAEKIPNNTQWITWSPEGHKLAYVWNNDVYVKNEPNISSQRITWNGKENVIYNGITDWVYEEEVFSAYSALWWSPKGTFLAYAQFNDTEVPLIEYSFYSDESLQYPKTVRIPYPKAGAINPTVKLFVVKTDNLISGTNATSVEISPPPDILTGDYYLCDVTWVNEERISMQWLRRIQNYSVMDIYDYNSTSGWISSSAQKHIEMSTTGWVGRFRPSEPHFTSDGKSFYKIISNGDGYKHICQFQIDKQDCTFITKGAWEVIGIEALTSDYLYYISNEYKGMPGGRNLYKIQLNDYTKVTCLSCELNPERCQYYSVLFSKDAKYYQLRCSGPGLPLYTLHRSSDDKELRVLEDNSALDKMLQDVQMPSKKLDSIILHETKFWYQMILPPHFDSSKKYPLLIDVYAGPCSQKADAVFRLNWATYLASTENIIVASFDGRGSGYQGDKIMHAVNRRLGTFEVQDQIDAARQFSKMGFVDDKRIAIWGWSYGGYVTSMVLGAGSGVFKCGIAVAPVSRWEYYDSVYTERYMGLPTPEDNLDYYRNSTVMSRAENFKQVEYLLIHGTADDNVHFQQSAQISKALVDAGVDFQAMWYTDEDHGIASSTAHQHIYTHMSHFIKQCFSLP
T1 sequence (P27487 whole entry): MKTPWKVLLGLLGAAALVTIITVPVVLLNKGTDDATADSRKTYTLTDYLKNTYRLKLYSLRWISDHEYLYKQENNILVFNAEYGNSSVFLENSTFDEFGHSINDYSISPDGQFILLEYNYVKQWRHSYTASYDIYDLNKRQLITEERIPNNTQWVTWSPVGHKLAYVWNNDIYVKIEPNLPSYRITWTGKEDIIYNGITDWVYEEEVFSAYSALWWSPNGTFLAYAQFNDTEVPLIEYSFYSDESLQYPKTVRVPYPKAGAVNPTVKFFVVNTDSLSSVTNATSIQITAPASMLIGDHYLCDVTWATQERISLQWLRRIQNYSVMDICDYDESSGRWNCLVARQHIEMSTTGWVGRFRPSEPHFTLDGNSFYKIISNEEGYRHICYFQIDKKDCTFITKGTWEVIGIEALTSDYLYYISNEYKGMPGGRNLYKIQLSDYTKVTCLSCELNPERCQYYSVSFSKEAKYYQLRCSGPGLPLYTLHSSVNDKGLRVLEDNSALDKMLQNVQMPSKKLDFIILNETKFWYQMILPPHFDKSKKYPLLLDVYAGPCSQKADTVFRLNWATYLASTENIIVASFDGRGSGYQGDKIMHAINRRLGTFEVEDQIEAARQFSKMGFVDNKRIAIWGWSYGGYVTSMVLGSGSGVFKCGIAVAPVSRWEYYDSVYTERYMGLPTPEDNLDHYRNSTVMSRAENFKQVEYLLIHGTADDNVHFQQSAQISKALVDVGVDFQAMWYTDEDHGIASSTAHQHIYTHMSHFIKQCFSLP

CN(C)C(=O)N1C2CCC1CC([C@H](N)C(=O)N1[C@H](C#N)C[C@@H]3C[C@@H]31)C2 (stereo partly drawn) (as salt: salt) [Compound 1, (1S,3S,5S)-2-{(2S)-2-Amino-2-[8-(dimethylcarbamoyl)-8-aza-bicyclo[3.2.1]-oct-3-yl]-exo-ethanoyl}-2-azabicyclo[3.1.0]-hexane-3-carbonitrile trifluoro acetic acid salt]
melting point: 178 to 180 °C

C#C[C@H]1CC[C@@H](C#N)N1C(=O)[C@@H](N)C1CC2CCC(C1)N2C(=O)N(C)C (stereo partly drawn) (as salt: salt) [Compound 2, (2S,5R)-1-{(2S)-2-Amino-2-[8-(dimethylcarbamoyl)-8-aza-bicyclo[3.2.1]oct-3-yl]-exo-ethanoyl}-5-ethynyl-pyrrolidin-2-carbonitrile trifluoro acetic acid salt]
melting point: 165 to 167 °C

CN(C)C(=O)N1C2CCC1CC([C@H](N)C(=O)N1[C@H](C#N)C[C@@H]3C[C@@H]31)C2 (stereo partly drawn) [Compound 1, (1S,3S,5S)-2-{(2S)-2-Amino-2-[8-(dimethylcarbamoyl)-8-aza-bicyclo[3.2.1]-oct-3-yl]-exo-ethanoyl}-2-azabicyclo[3.1.0]-hexane-3-carbonitrile trifluoro acetic acid salt]
inhibition at 0.01 µM (human recombinant DPP-IV; compound at 10 nM (primary screening)): 69% | inhibition at 0.1 µM (human recombinant DPP-IV; compound at 100 nM (primary screening)): 94.8%

C#C[C@H]1CC[C@@H](C#N)N1C(=O)[C@@H](N)C1CC2CCC(C1)N2C(=O)N(C)C (stereo partly drawn) [Compound 2, (2S,5R)-1-{(2S)-2-Amino-2-[8-(dimethylcarbamoyl)-8-aza-bicyclo[3.2.1]oct-3-yl]-exo-ethanoyl}-5-ethynyl-pyrrolidin-2-carbonitrile trifluoro acetic acid salt]
pIC50 (human recombinant DPP-IV; 50 μM Gly-Pro-AMC, 15 min preincubation, 30 min at 30° C.): 8.48 | inhibition at 3 mg/kg (plasma DPP-IV; 0.5 h post dose, read-out: Plasma DPP-IV Inhibition (%) 0.5 h): 91% | inhibition at 3 mg/kg (plasma DPP-IV; 1 h post dose, read-out: Plasma DPP-IV Inhibition (%) 1 h): 85% | inhibition at 3 mg/kg (plasma DPP-IV; 2 h post dose, read-out: Plasma DPP-IV Inhibition (%) 2 h): 92% | inhibition at 3 mg/kg (plasma DPP-IV; 3 h post dose, read-out: Plasma DPP-IV Inhibition (%) 3 h): 90% | inhibition at 3 mg/kg (plasma DPP-IV; 4 h post dose, read-out: Plasma DPP-IV Inhibition (%) 4 h): 85% | inhibition at 3 mg/kg (plasma DPP-IV; 6 h post dose, read-out: Plasma DPP-IV Inhibition (%) 6 h): 72% | inhibition at 3 mg/kg (plasma DPP-IV; 8 h post dose, read-out: Plasma DPP-IV Inhibition (%) 8 h): 68% | inhibition at 3 mg/kg (plasma DPP-IV; 10 h post dose, read-out: Plasma DPP-IV Inhibition (%) 10 h): 67% | inhibition at 3 mg/kg (plasma DPP-IV; 12 h post dose, read-out: Plasma DPP-IV Inhibition (%) 12 h): 62%

— patent US8748457B2, “2-amino-2- [8-(dimethyl carbamoyl)- 8-aza- bicyclo [3.2.1] oct-3-yl]-exo- ethanoyl derivatives as potent DPP-IV inhibitors” (Lupin Limited, priority 2009, dated 2014)
